Test results taken from EPA's ToxRefDB 2.

Legend:
rat [1] = conditions: Fertility (Segment I), wistar, Injection, Intravenous, dose end: 26 PND
rat [2] = conditions: Fertility (Segment I); wistar; Injection; Intravenous; dose end: 7 GD; group: parental; systemic / in life observation / clinical signs / motor activity + systemic / in life observation / clinical signs / urine, discoloration + …
mouse [3] = conditions: Subchronic oral toxicity in rodents, other, Gavage/Intubation, dose end: 90 day, group: systemic
dog [4] = conditions: Sub-acute repeat dose toxicity, beagle, Injection, Intravenous, dose end: 4 week, group: systemic
mouse [5] = conditions: Fertility (Segment I); other; Injection; Intravenous; dose end: 3 GD; group: parental; systemic / in life observation / clinical signs / motor activity
dog [6] = conditions: Chronic toxicity, beagle, Oral, Capsule, dose end: 1 year, group: systemic
dog [7] = conditions: Subchronic oral toxicity in nonrodent, beagle, Capsule, dose end: 3 month, group: systemic, systemic / clinical chemistry / alanine aminotransferase (alt/sgpt) / alanine aminotransferase (alt/sgpt)
mouse [8] = conditions: Carcinogenicity, other, Oral, Gavage/Intubation, dose end: 106 week, group: systemic
rat [9] = conditions: Subchronic oral toxicity in rodents, sprague dawley, Feed, dose end: 13 week, group: systemic
dog [10] = conditions: Subchronic oral toxicity in nonrodent, beagle, Capsule, dose end: 98 day, group: systemic
rabbit = conditions: Prenatal developmental toxicity study, new zealand white, Oral, Gavage/Intubation, dose end: 19 GD, group: maternal
dog [11] = conditions: Subchronic oral toxicity in nonrodent, beagle, Feed, dose end: 13 week, group: systemic
rat [12] = conditions: Chronic toxicity, sprague dawley, Oral, Feed, dose end: 104 week, group: systemic
rat [13] = conditions: Chronic toxicity, fischer, Oral, Feed, dose end: 104 week, group: systemic
mouse [14] = conditions: Subchronic oral toxicity in rodents, cd1, Feed, dose end: 90 day, group: systemic
rat [15] = conditions: Combined chronic toxicity/carcinogenicity, fischer, Oral, Feed, dose end: 129 week, group: systemic
rat [16] = conditions: Subchronic oral toxicity in rodents, sprague dawley, Feed, dose end: 90 day, group: systemic, systemic / pathology microscopic / stomach / hyperkeratosis + systemic / pathology microscopic / stomach / hyperplasia
dog [17] = conditions: Chronic toxicity, beagle, Oral, Feed, dose end: 52 week, group: systemic
mouse [18] = conditions: Carcinogenicity, cd1, Oral, Feed, dose end: 24 month, group: systemic
[19] = group: developmental, developmental / offspring survival late / viability index / viability index
[20] = group: maternal, reproductive / reproductive performance / pregnancy / pregnancy
[21] = group: offspring, systemic / in life observation / clinical signs / [other] + systemic / in life observation / clinical signs / abnormal gait + systemic / in …
[22] = group: offspring, systemic / in life observation / clinical signs / abnormal gait + systemic / in life observation / clinical signs / convulsions + systemic…
[23] = group: parental, systemic / in life observation / body weight / body weight gain + systemic / in life observation / clinical signs / [other] + systemic / in …
[24] = systemic / organ weight / liver / relative to body weight + systemic / organ weight / kidney / absolute
[25] = systemic / in life observation / clinical signs / vomitting + systemic / organ weight / prostate / nos
[26] = systemic / clinical chemistry / alanine aminotransferase (alt/sgpt) / alanine aminotransferase (alt/sgpt)
[27] = systemic / clinical chemistry / alanine aminotransferase (alt/sgpt) / alanine aminotransferase (alt/sgpt) + systemic / clinical chemistry / …
[28] = systemic / hematology / erythrocyte (rbc) count differential / erythrocyte (rbc) + systemic / hematology / hematocrit (hct) / hematocrit (…
[29] = systemic / hematology / leukocyte (wbc) count differential / leukocyte (wbc) + systemic / organ weight / kidney / relative to body weight
[30] = systemic / pathology microscopic / kidney / inclusion body intracytoplasmic
[31] = systemic / in life observation / clinical signs / anorexia + systemic / in life observation / clinical signs / no feces
[32] = systemic / pathology microscopic / liver / inflammation + systemic / clinical chemistry / alanine aminotransferase (alt/sgpt) / alanine …
[33] = systemic / clinical chemistry / potassium / potassium
[34] = systemic / clinical chemistry / potassium / potassium + systemic / clinical chemistry / albumin / albumin + systemic / clinical chemistry / …
[35] = systemic / pathology microscopic / kidney / hyperplasia + systemic / pathology microscopic / kidney / karyomegaly + systemic / in life …
[36] = systemic / pathology microscopic / kidney / karyomegaly
[37] = systemic / pathology gross / urinary bladder / lesion(s) (nos)
[38] = systemic / pathology microscopic / kidney / adenoma + systemic / pathology microscopic / kidney / carcinoma
[39] = systemic / pathology microscopic / kidney / adenoma + systemic / pathology microscopic / kidney / carcinoma + systemic / pathology …
[40] = systemic / pathology gross / stomach / adhesions + systemic / pathology gross / stomach / thickened + systemic / pathology microscopic / …
[41] = systemic / pathology microscopic / stomach / congestion + systemic / pathology microscopic / stomach / mineralization + systemic / clinical …
[42] = systemic / organ weight / liver / relative to body weight

CC(C)c1ccc(C(=O)N=C(N)N)cc1S(C)(=O)=O.CS(=O)(=O)O [Cariporide mesylate]
LEL (rat [1]; [19]): 125 mg/kg/day | LOAEL (rat [1]; [19]): > 125 mg/kg/day | NEL (rat [1]; [19]): 25 mg/kg/day | NOAEL (rat [1]; [19]): ≥ 125 mg/kg/day | LEL (rat [1]; [20]): 125 mg/kg/day | LOAEL (rat [1]; [20]): > 125 mg/kg/day | NEL (rat [1]; [20]): 25 mg/kg/day | NOAEL (rat [1]; [20]): ≥ 125 mg/kg/day | LOAEL (rat [1]; [21]): > 125 mg/kg/day | NOAEL (rat [1]; [21]): ≥ 125 mg/kg/day | LEL (rat [1]; [22]): 5 mg/kg/day | NEL (rat [1]; [22]): < 5 mg/kg/day | LEL (rat [1]; [23]): 125 mg/kg/day | LOAEL (rat [1]; [23]): > 125 mg/kg/day | NEL (rat [1]; [23]): 25 mg/kg/day | NOAEL (rat [1]; [23]): ≥ 125 mg/kg/day | LEL (rat [2]): 100 mg/kg/day | LOAEL (rat [2]): > 100 mg/kg/day | NEL (rat [2]): 25 mg/kg/day | NOAEL (rat [2]): ≥ 100 mg/kg/day | NOAEL (mouse [3]; systemic / organ weight / liver / relative to body weight + systemic / in life observation / clinical signs / abnormal gait + systemic / in …): 250 mg/kg/day | LEL (mouse [3]; [24]): 250 mg/kg/day | LOAEL (mouse [3]; [24]): 500 mg/kg/day | NEL (mouse [3]; [24]): < 250 mg/kg/day | NEL (dog [4]; systemic / in life observation / clinical signs / vomitting): 5 mg/kg/day | LEL (dog [4]; [25]): 20 mg/kg/day | LOAEL (dog [4]; [25]): > 20 mg/kg/day | NOAEL (dog [4]; [25]): ≥ 20 mg/kg/day | LEL (mouse [5]): 150 mg/kg/day | LOAEL (mouse [5]): > 150 mg/kg/day | NEL (mouse [5]): 50 mg/kg/day | NOAEL (mouse [5]): ≥ 150 mg/kg/day | LEL (dog [6]; [26]): 3.2 mg/kg/day | NEL (dog [6]; [26]): < 3.2 mg/kg/day | LOAEL (dog [6]; [27]): > 20 mg/kg/day | NOAEL (dog [6]; [27]): ≥ 20 mg/kg/day | LEL (dog [7]): 8 mg/kg/day | LOAEL (dog [7]): > 20 mg/kg/day | NEL (dog [7]): 3.2 mg/kg/day | NOAEL (dog [7]): ≥ 20 mg/kg/day | LOAEL (mouse [8]; [28]): > 500 mg/kg/day | NOAEL (mouse [8]; [28]): ≥ 500 mg/kg/day | LEL (mouse [8]; [29]): 50 mg/kg/day | NEL (mouse [8]; [29]): < 50 mg/kg/day

N#Cc1c(Cl)c(Cl)c(Cl)c(C#N)c1Cl [Chlorothalonil]
LEL (rat [9]; [30]): 1.5 mg/kg/day | LOAEL (rat [9]; [30]): 3 mg/kg/day | NEL (rat [9]; [30]): < 1.5 mg/kg/day | NOAEL (rat [9]; systemic / pathology microscopic / kidney / inclusion body intracytoplasmic + systemic / pathology microscopic / kidney / hyperplasia): 1.5 mg/kg/day | LEL (dog [10]; [26]): 15 mg/kg/day | NEL (dog [10]; [26]): < 15 mg/kg/day | LOAEL (dog [10]; systemic / in life observation / body weight / body weight gain): 150 mg/kg/day | NOAEL (dog [10]; systemic / in life observation / body weight / body weight gain + systemic / clinical chemistry / alanine aminotransferase (alt/sgpt) / …): 15 mg/kg/day | LOAEL (rabbit; systemic / in life observation / body weight / body weight gain + systemic / in life observation / food consumption / food consumption): 500 mg/kg/day | NOAEL (rabbit; systemic / in life observation / body weight / body weight gain + systemic / in life observation / food consumption / food consumption + …): 250 mg/kg/day | LEL (rabbit; [31]): 250 mg/kg/day | NEL (rabbit; [31]): < 250 mg/kg/day | LOAEL (dog [11]; systemic / pathology microscopic / liver / infiltration cellular + systemic / pathology microscopic / liver / inflammation): 56.5 mg/kg/day | NOAEL (dog [11]; systemic / pathology microscopic / liver / infiltration cellular + systemic / pathology microscopic / liver / inflammation + systemic / …): 5.6 mg/kg/day | LEL (dog [11]; [32]): 5.6 mg/kg/day | NEL (dog [11]; [32]): < 5.6 mg/kg/day | LEL (rat [12]; [33]): 0.5 mg/kg/day | NEL (rat [12]; [33]): < 0.5 mg/kg/day | LOAEL (rat [12]; [34]): 10 mg/kg/day | NOAEL (rat [12]; [34]): 3 mg/kg/day | LOAEL (rat [13]; [35]): 175 mg/kg/day | NOAEL (rat [13]; [35]): 15 mg/kg/day | LEL (rat [13]; [36]): 1.5 mg/kg/day | NEL (rat [13]; [36]): < 1.5 mg/kg/day | LEL (mouse [14]; [37]): 1.12 mg/kg/day | NEL (mouse [14]; [37]): < 1.12 mg/kg/day | NOAEL (mouse [14]; systemic / pathology microscopic / stomach / hyperkeratosis + systemic / pathology microscopic / stomach / hyperplasia + systemic / clinical…): 2.25 mg/kg/day | LOAEL (mouse [14]; systemic / pathology microscopic / stomach / hyperkeratosis + systemic / pathology microscopic / stomach / hyperplasia + systemic / …): 7.5 mg/kg/day | LOAEL (rat [15]; [38]): 40 mg/kg/day | NOAEL (rat [15]; [38]): < 40 mg/kg/day | LEL (rat [15]; [39]): 40 mg/kg/day | NEL (rat [15]; [39]): < 40 mg/kg/day | LEL (rat [16]): 2.3 mg/kg/day | LOAEL (rat [16]): 2.3 mg/kg/day | NEL (rat [16]): < 2.3 mg/kg/day | NOAEL (rat [16]): < 2.3 mg/kg/day | LOAEL (dog [17]; [40]): 43.3 mg/kg/day | NOAEL (dog [17]; [40]): 5.1 mg/kg/day | LEL (dog [17]; [41]): 5.1 mg/kg/day | NEL (dog [17]; [41]): < 5.1 mg/kg/day | LOAEL (mouse [18]; systemic / in life observation / body weight / body weight): 225 mg/kg/day | NOAEL (mouse [18]; systemic / in life observation / body weight / body weight + systemic / hematology / erythrocyte (rbc) count differential / erythrocyte (rbc…): 112 mg/kg/day | LEL (mouse [18]; [42]): 56.2 mg/kg/day | NEL (mouse [18]; [42]): < 56.2 mg/kg/day
